Reference: patent US6504058B1 (priority 1997, dated 2003)

How the values were obtained:
Botrytis cinerea = test: Test E: gray mold, preventive spray on cucumber seedlings, disease rating; format: in vivo, Botrytis cinerea (on cucumber seedlings); settings: 200 ppm test suspension sprayed to run-off (equivalent to 500 g/ha) on cucumber seedlings; 100 = 100% disease control, 0 = no control; # = significant activity
Excerpt: (§1) Test compounds were first dissolved in acetone in an amount equal to 3% of the final volume and then suspended at a concentration of 200 ppm in purified water containing 250 ppm of the surfactant Trem® 014 (polyhydric alcohol esters). The resulting test suspensions were then used in the following test. Spraying these 200 ppm test suspensions to the point of run-off on the test plants is the equivalent of a rate of 500 g/ha.
The test suspension was sprayed to the point of run-off on cucumber seedlings. The following day the seedlings were inoculated with a spore suspension of Botrytis cinerea (the causal agent of gray mold on many crops) and incubated in a saturated atmosphere at 20° C. for 48 h, and moved to a growth chamber at 20° C. for 5 days, after which disease ratings were made.
(§2) Results for Tests A-E are given in Table A. In the table, a rating of 100 indicates 100% disease control and a rating of 0 indicates no disease control (relative to the controls). A dash (-) indicates no test results. ND indicates disease control not determined due to phytotoxicity. # indicates significant activity.

Puccinia recondita = test: Test B: wheat leaf rust, preventive spray on wheat seedlings, disease rating; format: in vivo, Puccinia recondita (on wheat seedlings); settings: 200 ppm test suspension sprayed to run-off (equivalent to 500 g/ha) on wheat seedlings; 100 = 100% disease control, 0 = no control; # = significant activity
Excerpt: as §1
The test suspension was sprayed to the point of run-off on wheat seedlings. The following day the seedlings were inoculated with a spore suspension of Puccinia recondita (the causal agent of wheat leaf rust) and incubated in a saturated atmosphere at 20° C. for 24 h, and then moved to a growth chamber at 20° C. for 6 days, after which disease ratings were made.
as §2

Phytophthora infestans = format: in vivo, Phytophthora infestans (on tomato seedlings); settings: 200 ppm test suspension sprayed to run-off (equivalent to 500 g/ha) on tomato seedlings; 100 = 100% disease control, 0 = no control; # = significant activity
[1] = tested on: Erysiphe graminis f. sp. tritici; test: Test A: wheat powdery mildew, preventive spray on wheat seedlings, disease rating; format: in vivo, Erysiphe graminis f. sp. tritici (on wheat seedlings); settings: 200 ppm test suspension sprayed to run-off (equivalent to 500 g/ha) on wheat seedlings; 100 = 100% disease control, 0 = no control; # = significant activity
Excerpt: as §1
The test suspension was sprayed to the point of run-off on wheat seedlings. The following day the seedlings were inoculated with a spore dust of Erysiphe graminis f. sp. tritici, (the causal agent of wheat powdery mildew) and incubated in a growth chamber at 20° C. for 7 days, after which disease ratings were made.
as §2

Pyricularia oryzae = format: in vivo, Pyricularia oryzae (on rice seedlings); settings: 200 ppm test suspension sprayed to run-off (equivalent to 500 g/ha) on rice seedlings; 100 = 100% disease control, 0 = no control; # = significant activity

| Structure (SMILES) | Test E disease control rating (gray mold) (Botrytis cinerea) | Test B disease control rating (wheat leaf rust) (Puccinia recondita) | Test D disease control rating (potato and tomato late blight) (Phytophthora infestans) | Test A disease control rating (wheat powdery mildew) [1] | Test C disease control rating (rice blast) (Pyricularia oryzae) |
| --- | --- | --- | --- | --- | --- |
| CC(NC(=O)C1CC(C)(Cl)C1)C(Oc1ccccc1C#N)c1ccccc1 (stereo not drawn) [compound 36] | 0 (a rating of 0 indicates no disease control (relative to the controls)) | 0 (a rating of 0 indicates no disease control (relative to the controls)) | 0 (a rating of 0 indicates no disease control (relative to the controls)) | 0 (a rating of 0 indicates no disease control (relative to the controls)) | 0 (a rating of 0 indicates no disease control (relative to the controls)) |
| CC(COc1ccc(Br)cc1C#N)NC(=O)C1(C)CC(C)(Cl)C1 (stereo not drawn) [compound 37] | 8% | 25% | 23% | 0 (a rating of 0 indicates no disease control (relative to the controls)) | 0 (a rating of 0 indicates no disease control (relative to the controls)) |
| CC(COc1ccc(Br)cc1C#N)NC(=O)C1(C)CC(C)(Cl)C1 (stereo not drawn) [compound 38] | 8% | 66# % | 23% | 0 (a rating of 0 indicates no disease control (relative to the controls)) | 0 (a rating of 0 indicates no disease control (relative to the controls)) |
| CC(COc1ccc(F)cc1C#N)NC(=O)C1(C)CC(C)(Cl)C1 (stereo not drawn) [compound 39] | 47% | 25% | 45% | 0 (a rating of 0 indicates no disease control (relative to the controls)) | 97# % |
| CC(COc1ccc(F)cc1C#N)NC(=O)C1(C)CC(C)(Cl)C1 (stereo not drawn) [compound 40] | 0 (a rating of 0 indicates no disease control (relative to the controls)) | 0 (a rating of 0 indicates no disease control (relative to the controls)) | 62% | 0 (a rating of 0 indicates no disease control (relative to the controls)) | 0 (a rating of 0 indicates no disease control (relative to the controls)) |
| CC(COc1ccc(Cl)cc1C#N)NC(=O)C1(C)CC(C)(Cl)C1 (stereo not drawn) [compound 41] | 19% | 0 (a rating of 0 indicates no disease control (relative to the controls)) | 85# % | 0 (a rating of 0 indicates no disease control (relative to the controls)) | 0 (a rating of 0 indicates no disease control (relative to the controls)) |
| CC(COc1ccc(Cl)cc1C#N)NC(=O)C1(C)CC(C)(Cl)C1 (stereo not drawn) [compound 42] | 19% | 0 (a rating of 0 indicates no disease control (relative to the controls)) | 43% | 63% | 0 (a rating of 0 indicates no disease control (relative to the controls)) |
| CC(COc1cc(F)ccc1C#N)NC(=O)C1(C)CC(C)(Cl)C1 (stereo not drawn) [compound 43] | 19% | 0 (a rating of 0 indicates no disease control (relative to the controls)) | 20% | 0 (a rating of 0 indicates no disease control (relative to the controls)) | 0 (a rating of 0 indicates no disease control (relative to the controls)) |
| CC(COc1cc(F)ccc1C#N)NC(=O)C1(C)CC(C)(Cl)C1 (stereo not drawn) [compound 44] | 84% | 0 (a rating of 0 indicates no disease control (relative to the controls)) | 20% | 0 (a rating of 0 indicates no disease control (relative to the controls)) | 94# % |
| CC(COc1cc(Cl)ccc1C#N)NC(=O)C1(C)CC(C)(Cl)C1 (stereo not drawn) [compound 45] | 0 (a rating of 0 indicates no disease control (relative to the controls)) | 0 (a rating of 0 indicates no disease control (relative to the controls)) | 61% | 0 (a rating of 0 indicates no disease control (relative to the controls)) | 99# % |
| CC(COc1cc(Cl)ccc1C#N)NC(=O)C1(C)CC(C)(Cl)C1 (stereo not drawn) [compound 46] | 0 (a rating of 0 indicates no disease control (relative to the controls)) | 28% | 43% | 63% | 91# % |
| CC(COc1cc(Br)ccc1C#N)NC(=O)C1(C)CC(C)(Cl)C1 (stereo not drawn) [compound 47] | 0 (a rating of 0 indicates no disease control (relative to the controls)) | 25% | 26% | 97# % | 94# % |
| CC(COc1cc(Br)ccc1C#N)NC(=O)C1(C)CC(C)(Cl)C1 (stereo not drawn) [compound 48] | 0 (a rating of 0 indicates no disease control (relative to the controls)) | 85# % | 47% | 96# % | 99# % |
| CC(COc1cc(F)ccc1Cl)NC(=O)C1(C)CC(C)(Cl)C1 (stereo not drawn) [compound 49] | 0 (a rating of 0 indicates no disease control (relative to the controls)) | 0 (a rating of 0 indicates no disease control (relative to the controls)) | 0 (a rating of 0 indicates no disease control (relative to the controls)) | 98# % | 100# (a rating of 100 indicates 100% disease control) |
| CC(COc1cc(F)ccc1Cl)NC(=O)C1(C)CC(C)(Cl)C1 (stereo not drawn) [compound 50] | 0 (a rating of 0 indicates no disease control (relative to the controls)) | 0 (a rating of 0 indicates no disease control (relative to the controls)) | 0 (a rating of 0 indicates no disease control (relative to the controls)) | 54% | 94# % |
